Like-named read-outs stand apart in the source and are kept apart here.
What was measured:
Assay type in all cases: biochemical
[1] = target: T1, MMP 1 (Homo sapiens, UniProt P03956); assay: In Vitro Collagenase Assay; settings: human recombinant fibroblast collagenase; for IC50: read-out: MMP 1 IC 50; for inhibition at 1 µM: read-out: MMP 1 % inhibition at 1 micromolar
T1 construct: human recombinant fibroblast collagenase (truncated, mw= 18,828, WAR, Radnor)
T1 sequence (P03956 100-269 limits assumed): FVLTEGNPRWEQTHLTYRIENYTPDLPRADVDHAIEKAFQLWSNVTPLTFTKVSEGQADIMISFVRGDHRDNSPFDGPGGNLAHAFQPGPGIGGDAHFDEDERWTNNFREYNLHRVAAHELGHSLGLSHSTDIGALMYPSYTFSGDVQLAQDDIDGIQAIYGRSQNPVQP
Procedure: The assay is based on the cleavage of a peptide substrate ((Dnp-Pro-Cha-Gly-Cys(Me)-His-Ala-Lys(NMa)-NH2), Peptide International, Inc.) by collagenase releasing the fluorescent NMa group which is quantitated on the fluorometer. Dnp quenches the NMa fluorescence in the intact substrate. […] Substrate is dissolved in methanol and stored frozen in 1 mM aliquots. […] For the assay, substrate is dissolved in HCBC buffer to a final concentration of 10 µM and collagenase to a final concentration of 5 nM. Compounds are dissolved in methanol, DMSO, or HCBC. The methanol and DMSO are diluted in HCBC to < 1.0%. Compounds are added to the 96 well plate containing enzyme and the reaction is started by the addition of substrate.
The slope of the line is calculated and represents the reaction rate.
The linearity of the reaction rate is confirmed (r^2 >0.85). The mean (x ± sem) of the control rate is calculated and compared for statistical significance (p <0.05) with drug-treated rates using Dunnett's multiple comparison test.

[2] = target: MMP 13 (Homo sapiens, UniProt P45452); assay: MMP 13 inhibition (IC50 / manual assay; method not described); settings: for inhibition at 1 µM: read-out: MMP 13 % inhibition at 1 micromolar
[3] = target: T2, TACE (Homo sapiens, UniProt P78536); assay: Procedure for Measuring TACE Inhibition; settings: for inhibition at 1 µM: read-out: TACE % inhibition at 1 micromolar; for IC50: read-out: TACE IC 50
T2 construct: purchased Immunex
In short: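 Single-concentration screen: test compound at 1 µM final, 10-min room-temperature preincubation with 1 µg/mL protease in Tris pH 7.4 buffer containing glycerol. Initial rate from linear fluorescence increase (340/420 nm) over 10 min after adding 100 µM peptidyl substrate; significance versus control rate by Dunnett's test.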

[4] = target: T3, MMP 9 (Homo sapiens, UniProt P14780); assay: In Vitro Gelatinase Assay; settings: human neutrophil gelatinase B; for IC50: read-out: MMP 9 IC 50; for inhibition at 1 µM: read-out: MMP 9 % inhibition at 1 micromolar
T3 construct: from tissue; host or cells: human neutrophils
Procedure: The assay is based on the cleavage of the thiopeptide substrate ((Ac-Pro-Leu-Gly(2 mercapto-4 methyl-pentanoyl)-Leu-Gly-OEt), Bachem Bioscience) by the enzyme, gelatinase, releasing the substrate product which reacts colorimetrically with DTNB ((5,5'-dithio-bis(2-nitro-benzoic acid)). The enzyme activity is measured by the rate of the color increase. The thiopeptide substrate is made up fresh as a 20 mM stock in 100% DMSO and the DTNB is dissolved in 100% DMSO as a 100 mM stock and stored in dark at room temperature. Both the substrate and DTNB are diluted together to 1 mM with substrate buffer (50 mM HEPES pH 7.5, 5 mM CaCl2) before use. […] The increase in OD405 is plotted and the slope of the line is calculated which represents the reaction rate. The linearity of the reaction rate is confirmed (r^2 >0.85). The mean (x ± sem) of the control rate is calculated and compared for statistical significance (p <0.05) with drug-treated rates using Dunnett's multiple comparison test.

T2 sequence (P78536 215-824): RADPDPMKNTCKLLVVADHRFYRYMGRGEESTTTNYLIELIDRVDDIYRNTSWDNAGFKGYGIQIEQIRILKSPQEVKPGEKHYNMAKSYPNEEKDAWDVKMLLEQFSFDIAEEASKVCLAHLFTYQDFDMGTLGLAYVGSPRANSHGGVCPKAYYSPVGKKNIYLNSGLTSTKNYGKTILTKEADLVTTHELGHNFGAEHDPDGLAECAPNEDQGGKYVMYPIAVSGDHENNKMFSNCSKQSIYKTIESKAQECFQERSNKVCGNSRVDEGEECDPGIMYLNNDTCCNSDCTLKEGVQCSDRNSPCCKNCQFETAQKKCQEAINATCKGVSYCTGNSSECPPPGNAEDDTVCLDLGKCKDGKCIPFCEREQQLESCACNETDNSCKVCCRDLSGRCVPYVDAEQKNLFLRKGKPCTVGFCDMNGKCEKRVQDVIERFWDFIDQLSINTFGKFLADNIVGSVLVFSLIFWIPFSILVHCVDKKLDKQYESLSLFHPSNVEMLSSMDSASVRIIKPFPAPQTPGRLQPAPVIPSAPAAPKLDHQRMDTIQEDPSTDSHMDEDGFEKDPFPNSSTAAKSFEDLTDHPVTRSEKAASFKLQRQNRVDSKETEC
T3 sequence (P14780 94-707): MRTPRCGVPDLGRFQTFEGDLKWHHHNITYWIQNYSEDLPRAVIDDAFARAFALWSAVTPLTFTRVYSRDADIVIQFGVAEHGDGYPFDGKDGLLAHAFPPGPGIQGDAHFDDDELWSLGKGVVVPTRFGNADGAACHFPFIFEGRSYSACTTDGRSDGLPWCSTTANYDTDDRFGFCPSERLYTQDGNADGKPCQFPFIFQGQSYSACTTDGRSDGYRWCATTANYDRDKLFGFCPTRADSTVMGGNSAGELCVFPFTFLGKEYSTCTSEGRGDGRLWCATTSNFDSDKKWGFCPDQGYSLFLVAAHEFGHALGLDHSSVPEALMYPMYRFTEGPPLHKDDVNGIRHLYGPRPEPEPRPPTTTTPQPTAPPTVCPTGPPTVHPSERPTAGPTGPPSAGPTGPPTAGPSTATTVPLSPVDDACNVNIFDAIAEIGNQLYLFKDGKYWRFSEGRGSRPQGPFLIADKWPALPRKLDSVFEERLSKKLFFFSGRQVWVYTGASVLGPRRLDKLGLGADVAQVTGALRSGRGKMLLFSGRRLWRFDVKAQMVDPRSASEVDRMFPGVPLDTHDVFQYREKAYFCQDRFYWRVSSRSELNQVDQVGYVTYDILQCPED

Row | IC50 [1] [µM] | IC50 ([2]; read-out: MMP 13 IC 50) [µM] | inhibition at 1 µM [3] [%] | IC50 [4] [µM] | IC50 [3] [µM] | Structure (SMILES) | further results
1 | 1.21 | 0.0041 | 50.2 | 0.0442 |  | COc1ccc(S(=O)(=O)C2(C(=O)NO)CCN(CCCOc3ccccc3)CC2)cc1 [Example 105, 4-(4-Methoxy-benzenesulfonyl)-1-(3-phenoxy-propyl)-piperidine-4-carboxylic acid hydroxyamide] | 
2 | 3.77 | 0.0157 |  | 0.154 | 0.228 | CCCCC[C@@H](C(=O)NO)[S@@+]([O-])c1ccc(OC)cc1 (stereo in doubt) [Example 81b, 2S*-(4-methoxy-phenyl-R*- sulfinyl)-heptanoic acid hydroxyamide] | 
3 | 0.156 |  |  | 0.009 | 0.203 | COc1ccc(S(=O)(=O)C(CC=C(C)C)(Cc2cccnc2)C(=O)NO)cc1 (stereo not shown) [Example 63, 2-(4-Methoxy-benzenesulfonyl)-5-methyl-2-pyridin-3-ylmethyl-hex-4-enoic acid hydroxyamide] | IC50 [2]: 0.003 µM
4 |  |  | 55.1 |  |  | CCCCCCC(Sc1ccc(F)cc1)C(=O)NO (stereo not shown) [Example 38, 2-(4-Fluoro-phenylsulfanyl)-octanoic acid hydroxyamide] | inhibition at 1 µM ([1]; 1 micromolar): 48.3%; inhibition at 1 µM [2]: 5.8%; inhibition at 1 µM ([4]; 1 micromolar): 1.7%
5 | 0.45 | 0.0015 |  | 0.0058 | 0.115 | COc1ccc(S(=O)(=O)C2(C(=O)NO)CCN(Cc3ccc(Cl)c(Cl)c3)CC2)cc1 [Example 85, 1-(3,4-dichlorobenzyl) -4-(4-methoxy-benzenesulfonyl)-piperidine-4-carboxylic acid hydroxamide] | 
6 |  |  |  |  |  | CCCCCCCCS(=O)(=O)C(Cc1ccc(OCCN2CCCCC2)cc1)C(=O)NO (stereo not shown) [Example 46, 2-(octane-1-sulfonyl)-3-[4-(2-piperidin-yl-ethoxy)-phenyl]propionic acid hydroxamide] | MMP 1 % inhibition at 1 micromolar ([1]; 1 micromolar): 78.9%; MMP 13 % inhibition at 1 micromolar ([2]; 1 micromolar): 84.7%; TACE % inhibition at 1 micromolar [3]: 1.4%; MMP 9 % inhibition at 1 micromolar ([4]; 1 micromolar): 79.12%
7 | 0.494 | 0.0015 |  | 0.0168 | 0.222 | COc1ccc(S(=O)(=O)C2(C(=O)NO)CCN(Cc3ccc(C)cc3)CC2)cc1 [Example 86, 4-(4-methoxy-benzenesulfonyl)-1-(4-methylbenzyl)-piperidine-4-carboxylic acid hydroxamide] | 
8 | 0.593 | 0.004 | 40.6 | 0.0079 |  | COc1ccc(S(=O)(=O)C(C)(Cc2ccc(OCCCN3CCN(c4cccc(Cl)c4)CC3)cc2)C(=O)NO)cc1 (stereo not shown) [Example 23, 3-(4-{3-[4-(3-Chloro-phenyl)-piperazin-1-yl]-propoxy}-phenyl)-N-hydroxy-2-(4-methoxy-benzenesulfonyl)-2-methyl-propionamide] | 
9 |  |  | 46.6 |  |  | Cc1occc1S(=O)(=O)C(C)(Cc1ccccc1)C(=O)NO (stereo not shown) [Example 43, 2-Methyl-2-(2-methyl-furan-3-sulfonyl)-3-phenyl-propionic acid hydroxamide] | inhibition at 1 µM ([1]; 1 micromolar): 66.1%; inhibition at 1 µM [2]: 55.5%; inhibition at 1 µM ([4]; 1 micromolar): 34.7%
10 | 0.622 | 0.0207 |  | 0.0838 | 0.826 | CCCCCCC(Cc1ccc(OCCN2CCCCCC2)cc1)(C(=O)NO)S(=O)(=O)c1ccc(OC)cc1 (stereo not shown) [Example 36, 2-[4-(2-Azepan-1-yl-ethoxy)-benzyl]-2-(4-Methoxy-benzenesulfonyl)-octanoic acid hydroxyamide] | 
11 | 0.297 | 0.0036 |  | 0.0043 |  | CCN(CC)CCOc1cccc(CC(C)(C(=O)NO)S(=O)(=O)c2ccc(OC)cc2)c1 (stereo not shown) [Example 29, N-Hydroxy-2-(4-methoxy-benzenesulfonyl)-2-methyl-3-[3-(2-N,N-diethylamino-ethoxy)-phenyl]-propionamide] | TACE % inhibition at 1 micromolar [3]: 41%
12 | 0.519 | 0.002 |  | 0.0088 | 0.213 | COc1ccc(S(=O)(=O)C2(C(=O)NO)CCN(Cc3cccc(OC)c3)CC2)cc1 [Example 84, 4-(4-methoxy-benzenesulfonyl)-1-(3-methoxy-benzyl)-piperidine-4-carboxylic acid hydroxyamide] | 
13 | 0.446 | 0.0048 | 33.1 | 0.0958 |  | CCCC(Cc1ccc(OCCN2CCCCCC2)cc1)(C(=O)NO)S(=O)(=O)c1ccc(OC)cc1 (stereo not shown) [Example 19, 2-[4-(2-Azepan-1-yl-ethoxy)-benzyl]-2-(4-methoxy-benzenesulfonyl)-pentanoic acid hydroxyamide] | 
14 | 0.178 | 0.0131 | 48.1 | 0.0104 |  | COc1ccc(S(=O)(=O)C(C)(Cc2ccc(Br)cc2)C(=O)NO)cc1 (stereo not shown) [Example 51, 3-(4-Bromo-phenyl)-N-hydroxy-2-(4-methoxy-benzenesulfonyl)-2-methyl-propionamide] | 
15 | 0.219 | 0.0025 | 30 | 0.0032 |  | COc1ccc(S(=O)(=O)C(C)(Cc2cccc(OCCN3CCCCC3)c2)C(=O)NO)cc1 (stereo not shown) [Example 22, N-Hydroxy-2-(4-methoxy-benzenesulfonyl)-2-methyl-3-[3-(2-piperidin-1-yl-ethoxy)-phenyl]-propionamide] | 
16 | 0.239 | 0.014 |  | 0.011 | 0.626 | COc1ccc(S(=O)(=O)C(C)(CC=C(C)C)C(=O)NO)cc1 (stereo not shown) [Example 13, 2-(4-Methoxy-benzenesulfonyl)-2,5-dimethyl-hex-4-enoic acid hydroxyamide] | 
17 | 0.371 |  | 21 |  |  | COc1ccc(SC(C(=O)NO)C(C)C)cc1 (stereo not shown) [Example 4, N-Hydroxy-2-(4-methoxy-phenylsulfanyl)-3-methyl-butyramide] | inhibition at 1 µM [2]: 17.1%; inhibition at 1 µM ([4]; 1 micromolar): 22.2%
18 | 0.299 |  | 65 | 0.016 |  | COc1ccc(S(=O)(=O)C(C)(CC=Cc2ccccc2)C(=O)NO)cc1 (stereo not shown) [Example 56, 2-(4-methoxy-benzenesulfonyl)-2-methyl-5-phenyl-pent-4-enoic acid hydroxyamide] | IC50 [2]: 0.012 µM
19 | 0.656 | 0.0024 |  | 0.0162 | 0.25 | COc1ccc(S(=O)(=O)C2(C(=O)NO)CCN(Cc3ccc(F)cc3)CC2)cc1 [Example 99, 1-(4-Fluoro-benzyl)-4-(4-methoxy-benzenesulfonyl)-piperidine-4-carboxylic acid hydroxyamide] | 
20 |  |  | 3.3 |  |  | Cn1ccnc1S(=O)(=O)C(C)(Cc1ccc(-c2ccccc2)cc1)C(=O)NO (stereo not shown) [Example 47, 3-Biphenyl-4-yl-2-methyl-2-(1-methyl-1H-imidazole-2-sulfonyl)-propionic acid hydroxyamide] | inhibition at 1 µM ([1]; 1 micromolar): 17.1%; inhibition at 1 µM [2]: 7.12%; inhibition at 1 µM ([4]; 1 micromolar): 12.9%
21 | 0.117 | 0.001 | 51.6 | 0.011 |  | CC#CCC(CC#CC)(C(=O)NO)S(=O)(=O)c1ccc(OC)cc1 [Example 72, 2-(4-Methoxy-benzenesulfonyl)-2-but-2-ynyl-hex-4-ynoic acid hydroxyamide] | 

Row | Structure (SMILES) | IC50 [1] [µM] | IC50 ([2]; read-out: MMP 13 IC 50) [µM] | inhibition at 1 µM [3] [%] | IC50 [4] [µM] | IC50 [3] [µM] | further results
22 | Cc1occc1S(=O)(=O)C(C)(Cc1ccc(OCCN2CCCCC2)cc1)C(=O)NO (stereo not shown) [Example 44, 2-Methyl-2-(2-methyl-furan-3-sulfonyl)-3-[4-(2-piperidin-1-yl-ethoxy)-phenyl]-propionic acid hydroxamide] |  |  | 14.9 |  |  | inhibition at 1 µM ([1]; 1 micromolar): 47.1%; inhibition at 1 µM [2]: 39.5%; inhibition at 1 µM ([4]; 1 micromolar): 36.9%
